Results as given in PMC12638379, “An innovative approach to development of new pyrazolylquinolin-2-one hybrids as dual EGFR and BRAF^V600E inhibitors” (Molecular Diversity, 2025).
Several values for one entry are separate records, joined by “and”; a condition that tells them apart may be missing. Equal values may be shown once. Read-outs that look alike come from different tables or passages of the source.

Key:
NCI 60 cancer cell lines = experiment: NCI anticancer screening over a panel of 60 cancer cells, single concentration 10 µM; assay type: cell-based, human; conditions: for inhibition at 10 µM: Homo sapiens, read-out: % Growth Inhibition (GI %)
Method in brief: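 Run under the NCI Compound Evaluation Branch protocol, each compound was tested once at 10 µM. The panel comprised 60 cancer cell lines of diverse tissue origin, including leukemia, lung, colon, CNS, renal, ovarian, breast and prostate.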

[1] = tested on: leukemia (MOLT-4) cell line; experiment: MTT antiproliferative assay, MOLT-4; assay type: cell-based, human; conditions: for IC50: read-out: Antiproliferative activity IC50 ± SEM, MOLT-4
Procedure: After 24 h of culture incubation and supernatants discarded.

EGFR = molecular target: T1, EGFR (Homo sapiens, UniProt P00533); experiment: EGFR inhibitory assay; assay type: biochemical; conditions: for %inh: EGFR, unit not given
T1 construct: EGFR cytoplasmic domain (EGFR-CD, amino acids 645–1186); His6 (N); made in house; host or cells: Sf-9 insect cells (baculovirus)
T1 sequence (P00533 669-1210): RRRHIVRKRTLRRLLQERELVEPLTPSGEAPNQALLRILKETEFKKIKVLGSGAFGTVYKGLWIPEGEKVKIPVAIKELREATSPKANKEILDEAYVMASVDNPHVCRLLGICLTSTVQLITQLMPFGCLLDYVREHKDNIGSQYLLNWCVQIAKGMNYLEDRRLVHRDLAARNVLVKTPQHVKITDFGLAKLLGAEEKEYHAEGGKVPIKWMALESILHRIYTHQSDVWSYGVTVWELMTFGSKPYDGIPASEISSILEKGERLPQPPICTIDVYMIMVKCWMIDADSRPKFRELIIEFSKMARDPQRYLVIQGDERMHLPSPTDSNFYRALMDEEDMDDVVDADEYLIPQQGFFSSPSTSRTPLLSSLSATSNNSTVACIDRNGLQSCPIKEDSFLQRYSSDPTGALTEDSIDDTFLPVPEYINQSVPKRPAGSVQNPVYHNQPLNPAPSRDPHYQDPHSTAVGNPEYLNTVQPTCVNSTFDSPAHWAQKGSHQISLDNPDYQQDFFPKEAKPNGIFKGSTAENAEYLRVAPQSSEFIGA

BRAF^V600E = BRAF^V600E (Homo sapiens, UniProt P15056, V600E); experiment: BRAF^V600E inhibitory assay (B-Raf (V600E) Kinase Assay); assay type: biochemical; conditions: read-out: BRAF^V600E inhibition IC50 ± SEM
BRAF^V600E, sequence (P15056 whole entry V600E): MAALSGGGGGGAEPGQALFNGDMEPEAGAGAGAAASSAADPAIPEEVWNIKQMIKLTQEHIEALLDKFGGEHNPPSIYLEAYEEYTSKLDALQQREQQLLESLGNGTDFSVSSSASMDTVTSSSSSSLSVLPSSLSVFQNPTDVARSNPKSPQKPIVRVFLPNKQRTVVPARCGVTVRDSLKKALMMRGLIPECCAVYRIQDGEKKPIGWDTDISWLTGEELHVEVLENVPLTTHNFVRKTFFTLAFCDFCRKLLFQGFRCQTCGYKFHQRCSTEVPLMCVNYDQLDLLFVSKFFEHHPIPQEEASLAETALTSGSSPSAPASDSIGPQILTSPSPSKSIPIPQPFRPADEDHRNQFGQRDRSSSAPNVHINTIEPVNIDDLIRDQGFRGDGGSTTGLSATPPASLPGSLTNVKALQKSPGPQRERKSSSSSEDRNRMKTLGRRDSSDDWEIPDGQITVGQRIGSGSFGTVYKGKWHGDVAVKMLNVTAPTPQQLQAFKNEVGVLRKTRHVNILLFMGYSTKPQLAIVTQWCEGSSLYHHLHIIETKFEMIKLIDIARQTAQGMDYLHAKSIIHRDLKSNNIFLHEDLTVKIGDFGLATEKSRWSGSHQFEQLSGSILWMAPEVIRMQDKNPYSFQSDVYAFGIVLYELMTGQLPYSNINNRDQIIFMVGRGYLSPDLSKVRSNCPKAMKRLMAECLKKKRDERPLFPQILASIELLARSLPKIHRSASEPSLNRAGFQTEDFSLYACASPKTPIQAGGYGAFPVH

[2] = tested on: breast cancer (T47D) cell line; experiment: MTT antiproliferative assay, T-47D
Procedure: The median inhibitory concentration (IC50) and GI50 (average IC50) against the three cancer cell lines were calculated. See Appendix B.
Cells were cultured using DMEM (Invitrogen/Life Technologies) supplemented with 10% FBS (Hyclone,), 10 ug/ml of insulin (Sigma), and 1% penicillin-streptomycin. Plate cells (cells density 1.2 – 1.8 × 10,000 cells/well) in a volume of 100µl complete growth medium + 100 ul of the tested compound per well in a 96-well plate for 24 hours before the MTT assay. In atypical experiment, one hundred micro liters of serial 10-fold diluted sterile tested compounds were added to final concentrations of […] using culture media as negative control. After 24 h of culture incubation and supernatants discarded. HOP-92 lung, MOLT-4 leukemia, and T-47D breast cell lines were trypsinized and washed with Ca2/Mg2 free PBS (pH 7.2). we removed cultures from incubator into laminar flow hood or other sterile work area. […] Each test should include a blank containing complete medium without cells. […] Add reconstituted MTT in an amount equal to 10% of the culture medium volume. Return cultures to incubator for 2-4 hours depending on cell type and maximum cell density. […] Spectrophotometrically absorbance was measured at a wavelength of 570 nm. Measure the background absorbance of multiwell plates at 690 nm and subtract from the […] measurement. Results from all experiments were recorded and the percentage of viable cells was calculated.

normal cell line WI-38 = experiment: MTT cytotoxicity on normal cell line WI-38
[3] = MTT cytotoxicity on normal cell line WI-38; conditions: human, WI-38 normal cells, % viability

## C/C(=N\Nc1ccc(S(N)(=O)=O)cc1)c1cnn(-c2cc(=O)[nH]c3ccc(Br)cc23)c1C [Compound 4e, (E)-4-(2-(1-(1-(6-bromo-2-oxo-1,2-dihydroquinolin-4-yl)-5-methyl-1H-pyrazol-4-yl)ethylidene)hydrazineyl)benzenesulfonamide]
NCI 60 cancer cell lines; 10 µM, over the NCI cancer cell lines
  activity in NCI screening (mean GI%): remarkable activity over the most NCI cancer cell lines
NCI 60 cancer cell lines; 786-0, Renal cancer 786-0, 10 μM
  inhibition at 10 µM: 14.1%
NCI 60 cancer cell lines; A498, Renal cancer A498, 10 μM
  inhibition at 10 µM: < 5%
NCI 60 cancer cell lines; A549, Non-small cell lung cancer A549/ATCC, 10 μM
  inhibition at 10 µM: < 5%
NCI 60 cancer cell lines; ACHN, Renal cancer ACHN, 10 μM
  inhibition at 10 µM: 19%
NCI 60 cancer cell lines; BT-549, Breast cancer BT-549, 10 μM
  inhibition at 10 µM: 62.3%
NCI 60 cancer cell lines; CAKI-1, Renal cancer CAKI-1, 10 μM
  inhibition at 10 µM: 23.3%
NCI 60 cancer cell lines; CCRF-CEM, Leukemia CCRF-CEM, 10 μM
  inhibition at 10 µM: 91.8%
NCI 60 cancer cell lines; COLO 205, Colon cancer COLO 205, 10 μM
  inhibition at 10 µM: 14.5%
NCI 60 cancer cell lines; DU-145, Prostate cancer DU-145, 10 μM
  inhibition at 10 µM: 22.1%
NCI 60 cancer cell lines; EKVX, Non-small cell lung cancer EKVX, 10 μM
  inhibition at 10 µM: 27.9%
NCI 60 cancer cell lines; HCC 2998, Colon cancer HCC-2998, 10 μM
  inhibition at 10 µM: 26.6%
NCI 60 cancer cell lines; HCT-15, Colon cancer HCT-15, 10 μM
  inhibition at 10 µM: 8.8%
NCI 60 cancer cell lines; HCT-116, Colon cancer HCT-116, 10 μM
  inhibition at 10 µM: 41.5%
NCI 60 cancer cell lines; HL-60, Leukemia HL-60(TB), 10 μM
  inhibition at 10 µM: 15.2%
NCI 60 cancer cell lines; HOP-62, Non-small cell lung cancer HOP-62, 10 μM
  inhibition at 10 µM: 36.6%
NCI 60 cancer cell lines; HOP-92, Non-small cell lung cancer HOP-92, 10 μM
  inhibition at 10 µM: 102%
NCI 60 cancer cell lines; HT-29, Colon cancer HT29, 10 μM
  inhibition at 10 µM: < 5%
NCI 60 cancer cell lines; Hs-578T, Breast cancer HS 578T, 10 μM
  inhibition at 10 µM: 71.6%
NCI 60 cancer cell lines; IGROV-1, Ovarian cancer IGROV1, 10 μM
  inhibition at 10 µM: 43%
NCI 60 cancer cell lines; K562, Leukemia K-562, 10 μM
  inhibition at 10 µM: 65%
NCI 60 cancer cell lines; KM12, Colon cancer KM12, 10 μM
  inhibition at 10 µM: 46.3%
NCI 60 cancer cell lines; LOX IMVI, Melanoma LOX IMVI, 10 μM
  inhibition at 10 µM: 61.8%
NCI 60 cancer cell lines; Leukemia SR, 10 μM
  inhibition at 10 µM: 95.9%
NCI 60 cancer cell lines; MCF7, Breast cancer MCF7, 10 μM
  inhibition at 10 µM: 76.8%
NCI 60 cancer cell lines; MDA-MB-231, Breast cancer MDA-MB-231/ATCC, 10 μM
  inhibition at 10 µM: 68.5%
NCI 60 cancer cell lines; MDA-MB-435, Melanoma MDA-MB-435, 10 μM
  inhibition at 10 µM: 95.6%
NCI 60 cancer cell lines; MDA-MB-468, Breast cancer MDA-MB-468, 10 μM
  inhibition at 10 µM: 111%
NCI 60 cancer cell lines; MOLT-4, Leukemia MOLT-4, 10 μM
  inhibition at 10 µM: 81.5%
NCI 60 cancer cell lines; Melanoma M14, 10 μM
  inhibition at 10 µM: 26.9%
NCI 60 cancer cell lines; Melanoma MALM-3M, 10 μM
  inhibition at 10 µM: 78.3%
NCI 60 cancer cell lines; NCI-H23, Non-small cell lung cancer NCI-H23, 10 μM
  inhibition at 10 µM: 30.1%
NCI 60 cancer cell lines; NCI-H226, Non-small cell lung cancer NCI-H226, 10 μM
  inhibition at 10 µM: 37.7%
NCI 60 cancer cell lines; NCI-H322M, Non-small cell lung cancer NCI-H322M, 10 μM
  inhibition at 10 µM: 22.3%
NCI 60 cancer cell lines; NCI-H460, Non-small cell lung cancer NCI-H460, 10 μM
  inhibition at 10 µM: 22.1%
NCI 60 cancer cell lines; NCI-H522, Non-small cell lung cancer NCI-H522, 10 μM
  inhibition at 10 µM: 94.9%
NCI 60 cancer cell lines; NCI/ADR-RES, Ovarian cancer NCI/ADR-RES, 10 μM
  inhibition at 10 µM: 9.87%
NCI 60 cancer cell lines; OVCAR-3, Ovarian cancer OVCAR-3, 10 μM
  inhibition at 10 µM: 43.8%
NCI 60 cancer cell lines; OVCAR-4, Ovarian cancer OVCAR-4, 10 μM
  inhibition at 10 µM: 32.3%
NCI 60 cancer cell lines; OVCAR-5, Ovarian cancer OVCAR-5, 10 μM
  inhibition at 10 µM: 18.6%
NCI 60 cancer cell lines; OVCAR-8, Ovarian cancer OVCAR-8, 10 μM
  inhibition at 10 µM: 19.5%
NCI 60 cancer cell lines; Prostate cancer PC-3, 10 μM
  inhibition at 10 µM: 41.6%
NCI 60 cancer cell lines; RPMI-8226, Leukemia RPMI-8226, 10 μM
  inhibition at 10 µM: 25.7%
NCI 60 cancer cell lines; RXF 393, Renal cancer RXF 393, 10 μM
  inhibition at 10 µM: 31.4%
NCI 60 cancer cell lines; SF-268, CNS Cancer SF-268, 10 μM
  inhibition at 10 µM: 42.7%
NCI 60 cancer cell lines; SF-295, CNS Cancer SF-295, 10 μM
  inhibition at 10 µM: 8.09%
NCI 60 cancer cell lines; SF-539, CNS Cancer SF-539, 10 μM
  inhibition at 10 µM: 58.4%
NCI 60 cancer cell lines; SK-MEL-2, Melanoma SK-MEL-2, 10 μM
  inhibition at 10 µM: 80%
NCI 60 cancer cell lines; SK-MEL-5, Melanoma SK-MEL-5, 10 μM
  inhibition at 10 µM: 45%
NCI 60 cancer cell lines; SK-MEL-28, Melanoma SK-MEL-28, 10 μM
  inhibition at 10 µM: 65.3%
NCI 60 cancer cell lines; SK-OV-3, Ovarian cancer SK-OV-3, 10 μM
  inhibition at 10 µM: 30.8%
NCI 60 cancer cell lines; SN12C, Renal cancer SN12C, 10 μM
  inhibition at 10 µM: 38.8%
NCI 60 cancer cell lines; SNB-19, CNS Cancer SNB-19, 10 μM
  inhibition at 10 µM: 54%
NCI 60 cancer cell lines; SNB-75, CNS Cancer SNB-75, 10 μM
  inhibition at 10 µM: 78%
NCI 60 cancer cell lines; SW-620, Colon cancer SW-620, 10 μM
  inhibition at 10 µM: 24.3%
NCI 60 cancer cell lines; T47D, Breast cancer T-47D, 10 μM
  inhibition at 10 µM: 82.5%
NCI 60 cancer cell lines; TK-10, Renal cancer TK-10, 10 μM
  inhibition at 10 µM: < 5%
NCI 60 cancer cell lines; U-251, CNS Cancer U251, 10 μM
  inhibition at 10 µM: 62.1%
NCI 60 cancer cell lines; UACC-62, Melanoma UACC-62, 10 μM
  inhibition at 10 µM: 88.6%
NCI 60 cancer cell lines; UACC-257, Melanoma UACC-257, 10 μM
  inhibition at 10 µM: 33.7%
NCI 60 cancer cell lines; UO-31, Renal cancer UO-31, 10 μM
  inhibition at 10 µM: 45.2%
[1]; Homo sapiens, MOLT-4, MTT
  IC50: 8.62 ± 0.34 µM
[1]; MOLT-4, 0.4ug (log conc. -0.41)
  % viability: 65.87%
[1]; MOLT-4, 1.6ug (log conc. 0.193), listed as Ws5
  % viability: 58.42% and 58.419%
[1]; MOLT-4, 6.3ug (log conc. 0.796), listed as Ws5
  % viability: 52.84% and 52.844%
[1]; MOLT-4, 25ug (log conc. 1.398), listed as Ws5
  % viability: 44.14% and 44.141%
[1]; MOLT-4, 100ug (log conc. 2)
  % viability: 35.495%
[1]; MTT
  IC50: 8.02 ± 0.31 µM
EGFR; conc 0.01 (log -2)
  %inh: 37%
EGFR; conc 0.1 (log -1)
  %inh: 50.6%
EGFR; conc 1 (log 0)
  %inh: 75.8%
EGFR; conc 10 (log 1)
  %inh: 88.1%
EGFR; conc 100 (log 2)
  %inh: 94.2%
EGFR; read-out: EGFR inhibition IC50 ± SEM
  IC50: 0.055 ± 0.002 µM
BRAF^V600E
  IC50: 0.068 ± 0.003 µM
[2]; Homo sapiens, T47D, 0.4uM (log -0.41)
  viability at 0.4 µM: 74%
[2]; Homo sapiens, T47D, 6.3uM (log 0.796)
  viability at 6.3 µM: 52.1%
[2]; Homo sapiens, T47D, 25uM (log 1.398)
  viability at 25 µM: 42.1%
[2]; Homo sapiens, T47D, 100uM (log 2), MTT absorbance 450 nm
  viability at 100 µM: 32.1%
[2]; Homo sapiens, T47D, read-out: Antiproliferative activity IC50 ± SEM, T-47D, MTT
  IC50: 8.02 ± 0.31 µM
[2]; T47D, 1.6ug (log 0.193)
  % viability: 61.86%
[2]; T47D, 25uM (log 1.398), listed as Ws5, 25 µM
  % viability: 42.072%
[2]; read-out: Antiproliferative activity IC50 ± SEM, T-47D, MTT
  IC50: 8.62 ± 0.34 µM
Normal cell line WI-38; Homo sapiens, read-out: Antiproliferative activity IC50 ± SEM
  IC50: 29.6 ± 1.18 µM
Normal cell line WI-38; WI38, 0.4uM (log conc. -0.41), listed as Ws5, 0.4 µM
  % viability: 83.1677%
Normal cell line WI-38; WI38, 1.6uM (log conc. 0.19), listed as Ws5, 1.6 µM
  % viability: 70.8075%
Normal cell line WI-38; WI38, 6.3uM (log conc. 0.8), listed as Ws5, 6.3 µM
  % viability: 60.9938%
Normal cell line WI-38; WI38, 100uM (log conc. 2), listed as Ws5, 100 µM
  % viability: 42.1118%
[3]; WI38, 0.4uM (log conc. -0.41)
  viability at 24 h, 0.4 µM: 83.2%
[3]; WI38, 1.6uM (log conc. 0.19)
  viability at 24 h, 1.6 µM: 70.8%
[3]; WI38, 6.3uM (log conc. 0.8)
  viability at 24 h, 6.3 µM: 61%
[3]; WI38, 25uM (log conc. 1.4)
  viability at 24 h, 25 µM: 50.4%
[3]; WI38, 100uM (log conc. 2)
  viability at 24 h, 100 µM: 42.1%
